Molecular target: T1, Serine/threonine-protein kinase ULK2 (Homo sapiens, UniProt Q8IYT8)
T1 sequence (Q8IYT8 whole entry): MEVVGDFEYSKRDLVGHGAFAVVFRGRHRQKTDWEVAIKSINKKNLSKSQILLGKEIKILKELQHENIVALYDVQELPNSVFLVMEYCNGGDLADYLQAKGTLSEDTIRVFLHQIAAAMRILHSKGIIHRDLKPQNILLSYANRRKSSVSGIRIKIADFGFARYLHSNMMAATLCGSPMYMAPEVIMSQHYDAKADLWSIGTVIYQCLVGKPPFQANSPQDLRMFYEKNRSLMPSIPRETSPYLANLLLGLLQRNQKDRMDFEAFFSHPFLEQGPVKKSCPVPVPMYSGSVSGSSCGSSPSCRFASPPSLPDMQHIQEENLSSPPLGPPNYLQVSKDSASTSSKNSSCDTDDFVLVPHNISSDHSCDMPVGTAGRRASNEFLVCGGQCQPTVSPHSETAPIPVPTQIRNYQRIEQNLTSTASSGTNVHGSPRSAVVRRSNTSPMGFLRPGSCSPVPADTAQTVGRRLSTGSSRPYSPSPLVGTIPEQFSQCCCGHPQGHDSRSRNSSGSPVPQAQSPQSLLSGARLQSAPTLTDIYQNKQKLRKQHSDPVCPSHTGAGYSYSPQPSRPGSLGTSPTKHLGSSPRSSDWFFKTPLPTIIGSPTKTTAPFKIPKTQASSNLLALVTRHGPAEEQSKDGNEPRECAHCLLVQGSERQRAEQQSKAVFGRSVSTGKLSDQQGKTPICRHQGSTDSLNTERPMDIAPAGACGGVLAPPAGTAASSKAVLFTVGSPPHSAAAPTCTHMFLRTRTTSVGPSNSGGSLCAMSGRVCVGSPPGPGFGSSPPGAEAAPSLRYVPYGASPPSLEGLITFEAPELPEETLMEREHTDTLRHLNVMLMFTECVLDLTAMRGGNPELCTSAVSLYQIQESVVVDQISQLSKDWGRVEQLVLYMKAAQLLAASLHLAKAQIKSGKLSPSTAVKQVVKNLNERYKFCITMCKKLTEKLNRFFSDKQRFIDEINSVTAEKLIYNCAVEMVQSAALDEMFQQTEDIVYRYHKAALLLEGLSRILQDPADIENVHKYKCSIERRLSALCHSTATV
Assay: Not found
Description: Not found

CCC(CC)NC(=O)c1cc(-c2cnn3cc(N4CCNCC4)cnc23)cs1 [US20250059194, Example Table 1.9]
IC50: 0.325 µM

Reference: BindingDB's records for patent US20250059194 (Michigan State University, 2025)
